Results on 23 molecules are retold here after patent US6784175B2, “Use of substituted 1-amino-5-phenylpentane-3-ol and/or 1-amino-6-phenylhexane-3-ol compounds as medicaments” (Gruenenthal GmbH, priority 2000, dated 2004).

Counter-ions that a name gives are not always drawn.

The assay deals with (+)-MK801 binding site of the ionotropic NMDA receptor. Put plainly: (3H)-(+)-MK801 receptor bonding test on rat cerebral membrane homogenates. The note with it: 1 nmol/l (3H)-(+)-MK801, rat brain membrane homogenate; for Percentage inhibition of (3H)-(+)-MK801 binding at 10 μM: 10 μmol/l compound, triple determinations; for Ki: calculated from IC50 by Cheng-Prusoff equation. As for the experimental part:
Research to determine the NMDA antagonistic effect of each compound in general formula I was carried out on cerebral membrane homogenates (homogenate of rat brain without cerebellum, pons and medulla oblongata taken from male Wistar rats (Charles River, Sulzfeld, Germany)).
For this purpose, after separating the cerebellum, pons and medulla oblongata, freshly prepared rat brains were macerated in 50 mmol/l of tris/HCl (pH 7.7) with a Polytron homogeniser (model PT3000, Kinematika AG, Littau, Switzerland) at 6000 revolutions per minute (rpm) for 1 minute with ice cooling and centrifuged for 15 minutes at 4° C. and 60,000 g. After decanting and discarding the supernatant, again placing in 50 mmol/l of tris/HCl (pH 7.7) and macerating the membrane pellet with a homogeniser at 2000 rpm for 1 minute, it was centrifuged again for 15 minutes at 4° C. and 60,000 g. The supernatant was again discarding and the membrane pellet homogenised (2000 rpm for 1 minute) in 50 mmol/l of tris/HCl (pH 7.7) and frozen in aliquots at −70° C.
For the receptor bonding test, each aliquot was defrosted and then centrifuged for 15 minutes at 4° C. and 60,000 g. After decanting and discarding the supernatant, the membrane pellet was taken up with bonding test buffer and homogenised (2000 rpm for 1 minute). The bonding test buffer was 5 mmol/l tris/HCl (pH 7.7) supplemented with 30 μmol/l of glycine and 100 μmol/l of glutamic acid.
1 nmol/l of (^3H)-(+)-MK801 ((5R, 10S)-(+)-5-methyl-10,11-dihydro-5H-dibenzo(a,d)cycloheptane-5,10-imine was used as a radioactively marked ligand (NET-972, NEN, Cologne Germany). The proportion of unspecific bonding was determined in the presence of 10 μmol/l of non-radioactively marked (+)-MK801 (RBI/Sigma, Deisenhofen, Germany). In further batches, each of the compounds of general formula I were added in series of concentrations and the displacement of the radioactive ligand out of its specific bond to the NMDA receptor determined. All the batches were subjected to triple determinations. The batches were each incubated for 40 minutes at 25° C. in a water bath and then harvested for determination of the radioactive ligand bound to the cerebral membrane homogenate by means of filtration through glass-fibre filters (GF/B) (Whatman GF/B, Hassel, Munich, Germany). The radioactivity retained by the glass-fibre filter discs was measured in a β counter (Packard TRI-CARB Liquid Scintillation Analyser 2000CA, Packard Instrument, Meriden, Conn. 06450, USA) after adding a scintillator (“Ready Protein” scintillator, Beckmann Coulter GmhH, Krefeld, Germany).
The percentage inhibition of the specific bonding of the ligand (^3H)-(+)-MK801 in the presence of 10 μmol/l of each compound of general formula I resulting from the triple batches is used as a measure of the affinity of the compound for the (+)-MK801 binding site of the ionotropic NMDA receptor. From batches with concentration series of these compounds of general formula I, the IC50 values (concentration of substituted compounds with 50% displacement of radioactive ligand out of its specific bond) were calculated in accordance with the law of mass action using non-linear regression. From these IC50 values, the Kj values were calculated in accordance with the Cheng-Prusoff equation (Y. Cheng, W. H. Prusoff, 1973, Biochem. Pharmacol., 22, pp 3099-3108).

By Ki is commonly meant the equilibrium dissociation constant of an inhibitor or competing ligand from its target. With `Cc1ccccc1C(C1CCCCC1(O)CCc1ccccc1Cl)N(C)C` (single isomer, unassigned; (+)) [Example 49, (+)-15-1-[2-(2-chlorophenyl)ethyl]-2-(dimethylamino-o-tolylmethylcyclohexanol), hydrochloride], for the setting “hydrochloride, 10 µM”, the “Percentage inhibition of (3H)-(+)-MK801 binding at 10 μM” value (“Percentage inhibition” for short) worked out at 93%. Also, the Ki (hydrochloride) was 1300 nM.
For the molecule `CN(C)C(c1ccccc1)C1CCCCC1(O)CCCc1ccccc1.Cl` (single isomer, unassigned; (+)) [Example 51, (+)-2-(dimethylaminophenylmethyl)-1-(3-phenylpropyl)cyclohexanol, hydrochloride], the “Percentage inhibition” value (hydrochloride, 10 µM) worked out at 80%. Further, under “hydrochloride”, the Ki was 2300 nM.
`CN(C)C(c1ccccc1Cl)C1CCCCC1(O)CCc1ccccc1F.Cl` (single isomer, unassigned; (+)) [Example 53, (+)-2-[(2-chlorophenyl)dimethylaminomethyl]-1-[2-(2-fluorophenyl)ethyl]cyclohexanol, hydrochloride]: the “Percentage inhibition” value (hydrochloride, 10 µM) is listed as 104%. For the same molecule, the Ki (hydrochloride) is 500 nM.
On to `Cc1ccccc1C(C1CCCCC1(O)CCc1ccccc1Cl)N(C)C` (single isomer, unassigned; (-)) [Example 48, (−)-15-1-[2-(2-chlorophenyl)ethyl]-2-(dimethylamino-o-tolylmethylcyclohexanol), hydrochloride], for which, under “hydrochloride, 10 µM”, the “Percentage inhibition” value is 99%. In addition, the Ki (hydrochloride) was 400 nM.
Take `CN(C)C(c1ccccc1)C1CCCCC1(O)CCCc1ccccc1.Cl` (single isomer, unassigned; (-)) [Example 50, (−)-2-(dimethylaminophenylmethyl)1-(3-phenylpropyl)cyclohexanol, hydrochloride]: the “Percentage inhibition” value (hydrochloride, 10 µM) came to 87%. Further, for the setting “hydrochloride”, the Ki was 600 nM.
Regarding `CN(C)C(c1ccccc1Cl)C1CCCCC1(O)CCc1ccccc1F.Cl` (single isomer, unassigned; (-)) [Example 52, (−)-2-[(2-chlorophenyl)dimethylaminomethyl]-1-[2-(2-fluorophenyl)ethyl]cyclohexanol, hydrochloride], the “Percentage inhibition” value (hydrochloride, 10 µM) worked out at 105%. Also, for the setting “hydrochloride”, the Ki is 200 nM.
Regarding `Cc1ccccc1C(C1CCCCC1(O)CCc1cccc(Cl)c1)N(C)C.Cl` (stereo not shown) [Example 16, 1-[2-(3-chlorophenyl)ethyl]-2-(dimethylamino-o-tolylmethyl)cyclohexanol, hydrochloride], for the setting “hydrochloride, 10 µM”, the “Percentage inhibition” value amounted to 92%. Besides, the Ki (hydrochloride) was 1900 nM.
With `CN(C)C(c1ccccc1F)C1CCCCC1(O)CCc1ccc(F)cc1.Cl` (stereo not shown) [Example 17, 2-[dimethylamino-(2-fluorophenyl)methyl]-1-[2-(4-fluorophenyl)ethyl]cyclohexanol, hydrochloride], the “Percentage inhibition” value stood at 54% and the Ki was 5800 nM.
Regarding `Cc1ccccc1C(C1CCCCC1(O)CCc1ccc(F)cc1)N(C)C.Cl` (stereo not shown) [Example 18, 2-(dimethylamino-o-tolylmethyl)-1-[2-(4-fluorophenyl)ethyl]cyclohexanol, hydrochloride], the “Percentage inhibition” value is listed as 54% and the Ki was 6100 nM.
Turning to `Cc1cccc(C(C2CCCCC2(O)CCc2ccccc2Cl)N(C)C)c1.Cl` (stereo not shown) [Example 20, 1-[2-(2-chlorophenyl)ethyl]-2-(dimethylamino-m-tolylmethyl)cyclohexanol, hydrochloride], the “Percentage inhibition” value worked out at 62% and the Ki was 4300 nM.
As to `CN(C)C(c1ccccc1F)C1CCCCC1(O)CCc1cccc(Cl)c1.Cl` (stereo not shown) [Example 21, 1-[2-(3-chlorophenyl)ethyl]-2-(dimethylamino-(2-fluorophenyl)methyl]cyclohexanol, hydrochloride], the “Percentage inhibition” value amounted to 90% and the Ki was 2100 nM.
Turning to `CN(C)C(c1cccc(F)c1)C1CCCCC1(O)CCc1ccccc1Cl.Cl` (stereo not shown) [Example 22, 1-[2-(2-chlorophenyl)ethyl]-2-(dimethylamino-(3-fluorophenyl)methyl]cyclohexanol, hydrochloride], the “Percentage inhibition” value was determined as 74% and the inhibition constant Ki is 3000 nM.
`Cc1ccccc1C(C1CCCCC1(O)CCc1ccccc1Cl)N1CCOCC1.Cl` (stereo not shown) [Example 24, 1-[2-(2-chlorophenyl)ethyl]-2-(morpholine-4-yl-o-tolylmethyl)cyclohexanol, hydrochloride]: the “Percentage inhibition” value is on record as 48% and the Ki was 3700 nM.
Turning to `Cc1ccccc1C(C1CCCCC1(O)CCc1ccccc1Cl)N1CCCCC1.Cl` (stereo not shown) [Example 25, 1-[2-(2-chlorophenyl)ethyl]-2-(piperidine-1-yl-o-tolylmethyl)cyclohexanol, hydrochloride], the “Percentage inhibition” value is on record as 89% and the inhibition constant (Ki) was 1400 nM.
For `Cc1ccccc1C(C1CCCCC1(O)CCc1cccc(Cl)c1)N(C)C.Cl` (stereo not shown) [Example 26, 1-[2-(3-chlorophenyl)ethyl]-2-(dimethylamino-o-tolylmethyl)cyclohexanol, hydrochloride], the “Percentage inhibition” value (hydrochloride, 10 µM) worked out at 89%. Besides, where the note is “hydrochloride”, the Ki was 1300 nM.
Take `CN(C)C(c1ccccc1C(F)(F)F)C1CCCCC1(O)CCc1ccccc1.Cl` (stereo not shown) [Example 27, 2-[dimethylamino-(2-trifluoromethylphenyl)methyl]-1-phenethylcyclohexanol, hydrochloride]: the “Percentage inhibition” value came to 67% and the Ki is 4200 nM.
With `COc1ccccc1C(C1CCCCC1(O)CCc1ccccc1F)N(C)C.Cl` (stereo not shown) [Example 28, 2-[dimethylamino-(2-methoxyphenyl)methyl]-1-[2-(2-fluorophenyl)ethyl]cyclohexanol, hydrochloride], the “Percentage inhibition” value is 82% and the Ki was 2500 nM.
Turning to `CN(C)C(c1ccccc1F)C1CCCCC1(O)CCc1ccccc1F.Cl` (stereo not shown) [Example 29, 2-[dimethylamino-(2-fluorophenyl)methyl]-1-[2-(2-fluorophenyl)ethyl]cyclohexanol, hydrochloride], the “Percentage inhibition” value turned out to be 104% and the Ki is 300 nM.
On to `Cc1ccccc1C(C1CCCCC1(O)CCc1ccccc1F)N(C)C.Cl` (stereo not shown) [Example 30, 2-(dimethylamino-o-tolylmethyl)-1-[2-(2-fluorophenyl)ethyl]cyclohexanol, hydrochloride], for which the “Percentage inhibition” value worked out at 105% and the Ki was 300 nM.
With `Cc1ccccc1C(C1CCCCC1(O)CCc1ccccc1F)N1CCCC1.Cl` (stereo not shown) [Example 31, 1-[2-(2-fluorophenyl)ethyl]-2-(pyrrolidine-1-yl-o-tolylmethyl)cyclohexanol, hydrochloride], the “Percentage inhibition” value came out at 99% and the Ki is 100 nM.
`CN(C)C(c1ccccc1Br)C1CCCCC1(O)CCc1ccccc1Cl.Cl` (stereo not shown) [Example 32, 2-[(2-bromophenyl)dimethylaminomethyl]-1-[2-(2-chlorophenyl)ethyl]cyclohexanol, hydrochloride]: the “Percentage inhibition” value came to 96% and the Ki was 700 nM.
In the case of `CN(C)C(c1ccccc1Cl)C1CCCCC1(O)CCc1ccccc1Cl.Cl` (stereo not shown) [Example 33, 2-[(2-chlorophenyl)dimethylaminomethyl]-1-[2-(2-chlorophenyl)ethyl]cyclohexanol, hydrochloride], the “Percentage inhibition” value worked out at 93% and the Ki is 600 nM.
For `CN(C)C(c1ccccc1Br)C1CCCCC1(O)CCc1ccccc1F.Cl` (stereo not shown) [Example 34, 2-[(2-bromophenyl)dimethylaminomethyl]-1-[2-(2-fluorophenyl)ethyl]cyclohexanol, hydrochloride] the same measures were 95% and 400 nM.
